According to US20240190890A1, “MK2 INHIBITORS AND USES THEREOF” (Bristol-Myers Squibb Company, priority 2022, published 2024):

Molecular target: p38a activated, mitogen-activated protein kinase-activated protein kinase 2 (MAPKAP-K2 or MK2) enzyme (Homo sapiens (Human), UniProt P49137)
Assay: MK2 Omnia continuous-read kinase assay for compound potency
Type: biochemical
Settings: [MK-2]=0.4 nM, [ATP]=10 μM, [ST3-Sox]=10 μM; room temperature
Procedure, shortened: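 p38a-activated MK2 (0.4 nM) with 10 μM ATP (apparent Km) and 10 μM S/T3-Sox peptide in Tris pH 7.5 buffer with MgCl2, EGTA and DTT. Fluorescence (ex360/em485) read continuously for 120 min at room temperature. IC50 from initial linear slopes; apparent kinact/KI from kobs of exponential progress-curve fits.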

Sequence of p38a activated, mitogen-activated protein kinase-activated protein kinase 2 (MAPKAP-K2 or MK2) enzyme (P49137 whole entry): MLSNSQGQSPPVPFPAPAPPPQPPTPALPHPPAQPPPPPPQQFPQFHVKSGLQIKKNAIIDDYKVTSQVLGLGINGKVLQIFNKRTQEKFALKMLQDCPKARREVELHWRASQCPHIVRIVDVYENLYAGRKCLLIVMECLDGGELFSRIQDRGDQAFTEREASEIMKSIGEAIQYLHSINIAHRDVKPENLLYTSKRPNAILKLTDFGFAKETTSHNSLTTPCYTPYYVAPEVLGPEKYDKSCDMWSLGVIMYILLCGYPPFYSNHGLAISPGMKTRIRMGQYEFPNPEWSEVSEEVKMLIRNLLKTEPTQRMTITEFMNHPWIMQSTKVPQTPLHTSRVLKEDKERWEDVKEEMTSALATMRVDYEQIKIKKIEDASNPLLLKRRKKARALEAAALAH

Molecule | IC50
C=Cc1cc(-c2ccc3c(ccc4sc5c(c43)NC[C@@H](C)NC5=O)n2)c(OCCN2CCOCC2)nn1 [Example I-133, (R)-10-methyl-3-(3-(2-morpholinoethoxy)-6-vinylpyridazin-4-yl)-9,10,11,12-tetrahydro-8H-[1,4]diazepino[5′,6′:4,5]thieno[3,2-f]quinolin-8-one] | 0.255 µM
C=C(C)c1ncc(F)c(-c2ccc3c(ccc4sc5c(c43)NC[C@@H](C)NC5=O)n2)n1 [Example I-47, (R)-3-(5-fluoro-2-(prop-1-en-2-yl)pyrimidin-4-yl)-10-methyl-9,10,11,12-tetrahydro-8H-[1,4]diazepino[5′,6′:4,5]thieno[3,2-f]quinolin-8-one] | 0.429 µM
C=Cc1ccn(-c2ccc3c(ccc4sc5c(c43)NC[C@@H](C)NC5=O)n2)n1 [Example I-147, (R)-10-methyl-3-(3-vinyl-1H-pyrazol-1-yl)-9,10,11,12-tetrahydro-8H-[1,4]diazepino[5′,6′:4,5]thieno[3,2-f]quinolin-8-one] | 0.104 µM
(R)-10-methyl-3-(6-(4-methylpiperazin-1-yl)-2-vinylpyrimidin-4-yl)-9,10,11,12-tetrahydro-8H-[1,4]diazepino[5′,6′:4,5]thieno[3,2-f]quinolin- [Example I-18] | 0.004 µM
C[C@@H]1CNc2c(sc3ccc4nc(-c5cc(CN6CCN(C)CC6)nc(Cl)n5)ccc4c23)C(=O)N1 [Example I-87, (R)-3-(2-chloro-6-((4-methylpiperazin-1-yl)methyl)pyrimidin-4-yl)-10-methyl-9,10,11,12-tetrahydro-8H-[1,4]diazepino[5′,6′:4,5]thieno[3,2-f]quinolin-8-one] | 0.283 µM
C#Cc1cc(-c2ccc3c(ccc4sc5c(c43)NC[C@@H](C)NC5=O)n2)ccn1 [Example I-57, (R)-3-(2-ethynylpyridin-4-yl)-10-methyl-9,10,11,12-tetrahydro-8H-[1,4]diazepino[5′,6′:4,5]thieno[3,2-f]quinolin-8-one] | 0.117 µM
C=Cc1csc(-c2ccc3c(ccc4sc5c(c43)NC[C@@H](C)NC5=O)n2)n1 [Example I-149, (R)-10-methyl-3-(4-vinylthiazol-2-yl)-9,10,11,12-tetrahydro-8H-[1,4]diazepino[5′,6′:4,5]thieno[3,2-f]quinolin-8-one] | 0.095 µM
C/C=C/c1ncc(COCC)c(-c2ccc3c(ccc4sc5c(c43)NC[C@@H](C)NC5=O)n2)n1 [Example I-48, (R,E)-3-(5-(ethoxymethyl)-2-(prop-1-en-1-yl)pyrimidin-4-yl)-10-methyl-9,10,11,12-tetrahydro-8H-[1,4]diazepino[5′,6′:4,5]thieno[3,2-f]quinolin-8-one] | 0.371 µM
C=Cc1nc2c(c(-c3ccc4c(ccc5sc6c(c54)NC[C@@H](C)NC6=O)n3)n1)CN(C)CC2 [Example I-191, (R)-10-methyl-3-(6-methyl-2-vinyl-5,6,7,8-tetrahydropyrido[4,3-d]pyrimidin-4-yl)-9,10,11,12-tetrahydro-8H-[1,4]diazepino[5′,6′:4,5]thieno[3,2-f]quinolin-8-one] | 0.289 µM
C=Cc1cc(-c2ccc3c(ccc4sc5c(c43)NC[C@@H](C)NC5=O)n2)c(CN2C[C@@H](C)O[C@@H](C)C2)cn1 [Example I-213, (R)-3-(5-(((2S,6R)-2,6-dimethylmorpholino)methyl)-2-vinylpyridin-4-yl)-10-methyl-9,10,11,12-tetrahydro-8H-[1,4]diazepino[5′,6′:4,5]thieno[3,2-f]quinolin-8-one] | 0.103 µM
C[C@@H]1CNc2c(sc3ccc4nc(-c5cncc(Cl)c5)ccc4c23)C(=O)N1 [Example I-81, (R)-3-(5-chloropyridin-3-yl)-10-methyl-9,10,11,12-tetrahydro-8H-[1,4]diazepino[5′,6′:4,5]thieno[3,2-f]quinolin-8-one] | 0.09 µM
C=Cc1nc(-c2ccc3c(ccc4sc5c(c43)NC[C@@H](C)NC5=O)n2)cnc1C [Example I-166, (R)-10-methyl-3-(5-methyl-6-vinylpyrazin-2-yl)-9,10,11,12-tetrahydro-8H-[1,4]diazepino[5′,6′:4,5]thieno[3,2-f]quinolin-8-one] | 0.181 µM
C/C=C/c1cc(-c2ccc3c(ccc4sc5c(c43)NC[C@@H](C)NC5=O)n2)c(C)cn1 [Example I-265, (R,E)-10-methyl-3-(5-methyl-2-(prop-1-en-1-yl)pyridin-4-yl)-9,10,11,12-tetrahydro-8H-[1,4]diazepino[5′,6′:4,5]thieno[3,2-f]quinolin-8-one] | 0.21 µM
C#Cc1nc2c(c(-c3ccc4c(ccc5sc6c(c54)NC[C@@H](C)NC6=O)n3)n1)CN(C)CC2 [Example I-193, (R)-3-(2-ethynyl-6-methyl-5,6,7,8-tetrahydropyrido[4,3-d]pyrimidin-4-yl)-10-methyl-9,10,11,12-tetrahydro-8H-[1,4]diazepino[5′,6′:4,5]thieno[3,2-f]quinolin-8-one] | 0.526 µM
C=Cc1cc(C)nn1-c1ccc2c(ccc3sc4c(c32)NC[C@@H](C)NC4=O)n1 [Example I-236, (R)-10-methyl-3-(3-methyl-5-vinyl-1H-pyrazol-1-yl)-9,10,11,12-tetrahydro-8H-[1,4]diazepino[5′,6′:4,5]thieno[3,2-f]quinolin-8-one] | 0.157 µM

Other lines, results leading:

IC50 | Molecule
0.003 µM | C=Cc1cc(-c2ccc3c(ccc4sc5c(c43)NC[C@@H](C)NC5=O)n2)c(C(=O)OC)nn1 [Example I-137, methyl (R)-4-(10-methyl-8-oxo-9,10,11,12-tetrahydro-8H-[1,4]diazepino[5′,6′:4,5]thieno[3,2-f]quinolin-3-yl)-6-vinylpyridazine-3-carboxylate]
0.008 µM | C=Cc1cc(-c2ccc3c(ccc4sc5c(c43)NC[C@@H](C)NC5=O)n2)cc(C2CCN(C)CC2)n1 [Example I-106, (R)-10-methyl-3-(2-(1-methylpiperidin-4-yl)-6-vinylpyridin-4-yl)-9,10,11,12-tetrahydro-8H-[1,4]diazepino[5′,6′:4,5]thieno[3,2-f]quinolin-8-one]
0.001 µM | C=Cc1cc(-c2ccc3c(ccc4sc5c(c43)NC[C@@H](C)NC5=O)n2)ccn1 [Example I-55, (R)-10-methyl-3-(2-vinylpyridin-4-yl)-9,10,11,12-tetrahydro-8H-[1,4]diazepino[5′,6′:4,5]thieno[3,2-f]quinolin-8-one]
0.04 µM | C/C=C/c1cc(-c2ccc3c(ccc4sc5c(c43)NC[C@@H](C)NC5=O)n2)nc(COCC)n1 [Example I-35, (R,E)-3-(2-(ethoxymethyl)-6-(prop-1-en-1-yl)pyrimidin-4-yl)-10-methyl-9,10,11,12-tetrahydro-8H-[1,4]diazepino[5′,6′:4,5]thieno[3,2-f]quinolin-8-one]
0.01 µM | C=C(C)c1cc(-c2ccc3c(ccc4sc5c(c43)NC[C@@H](C)NC5=O)n2)nc(COCC)n1 [Example I-37, (R)-3-(2-(ethoxymethyl)-6-(prop-1-en-2-yl)pyrimidin-4-yl)-10-methyl-9,10,11,12-tetrahydro-8H-[1,4]diazepino[5′,6′:4,5]thieno[3,2-f]quinolin-8-one]
0.044 µM | C=Cc1nn(C)cc1-c1ccc2c(ccc3sc4c(c32)NC[C@@H](C)NC4=O)n1 [Example I-230, (R)-10-methyl-3-(1-methyl-3-vinyl-1H-pyrazol-4-yl)-9,10,11,12-tetrahydro-8H-[1,4]diazepino[5′,6′:4,5]thieno[3,2-f]quinolin-8-one]
0.01 µM | C=Cc1cc(-c2ccc3c(ccc4sc5c(c43)NC[C@@H](C)NC5=O)n2)cc(N2CCNCC2)n1 [Example I-175, (R)-10-methyl-3-(2-(piperazin-1-yl)-6-vinylpyridin-4-yl)-9,10,11,12-tetrahydro-8H-[1,4]diazepino[5′,6′:4,5]thieno[3,2-f]quinolin-8-one]
0.026 µM | C[C@@H]1CNc2c(sc3ccc4nc(-c5cc(N6CCN(C)CC6)nc(Cl)n5)ccc4c23)C(=O)N1 [Example I-16, (R)-3-(2-chloro-6-(4-methylpiperazin-1-yl)pyrimidin-4-yl)-10-methyl-9,10,11,12-tetrahydro-8H-[1,4]diazepino[5′,6′:4,5]thieno[3,2-f]quinolin-8-one]
0.013 µM | C=Cc1cc(-c2ccc3c(ccc4sc5c(c43)NC[C@@H](C)NC5=O)n2)c(CC)cn1 [Example I-195, (R)-3-(5-ethyl-2-vinylpyridin-4-yl)-10-methyl-9,10,11,12-tetrahydro-8H-[1,4]diazepino[5′,6′:4,5]thieno[3,2-f]quinolin-8-one]
0.003 µM | C=C(CN1CCOCC1)c1cc(-c2ccc3c(ccc4sc5c(c43)NC[C@@H](C)NC5=O)n2)ccn1 [Example I-131, (R)-10-methyl-3-(2-(3-morpholinoprop-1-en-2-yl)pyridin-4-yl)-9,10,11,12-tetrahydro-8H-[1,4]diazepino[5′,6′:4,5]thieno[3,2-f]quinolin-8-one]
0.003 µM | C#Cc1cc(-c2ccc3c(ccc4sc5c(c43)NC[C@@H](C)NC5=O)n2)nc(N2CCN(C)CC2)n1 [Example I-59, (R)-3-(6-ethynyl-2-(4-methylpiperazin-1-yl)pyrimidin-4-yl)-10-methyl-9,10,11,12-tetrahydro-8H-[1,4]diazepino[5′,6′:4,5]thieno[3,2-f]quinolin-8-one]
0.001 µM | C#Cc1cc(-c2ccc3c(ccc4sc5c(c43)NC[C@@H](C)NC5=O)n2)nc(CO)n1 [Example I-78, (R)-3-(6-ethynyl-2-(hydroxymethyl)pyrimidin-4-yl)-10-methyl-9,10,11,12-tetrahydro-8H-[1,4]diazepino[5′,6′:4,5]thieno[3,2-f]quinolin-8-one]
0.024 µM | C=C(F)c1ncc(F)c(-c2ccc3c(ccc4sc5c(c43)NC[C@@H](C)NC5=O)n2)n1 [Example I-31, (R)-3-(5-fluoro-2-(1-fluorovinyl)pyrimidin-4-yl)-10-methyl-9,10,11,12-tetrahydro-8H-[1,4]diazepino[5′,6′:4,5]thieno[3,2-f]quinolin-8-one]
